Test systems include SR; LOX IMVI; SF-268; TK-10; HL-60; NCI-H522; CAKI-1; HOP-62; MDA-MB-435; 786-0; HCT-116; SNB-19; SF-295; Hs-578T; NCI-H460; CCRF-CEM; OVCAR-3; HT-29; COLO 205; KM12.
Holding throughout (test): growth of human tumour cells (NCI), 48 h

The structures appear in SMILES notation.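 Each compound was tested at five concentrations against cells in 96-well plates for 48 hours. GI50 marks 50% less growth.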 Activity calls are given as the source filed them. Cut-off read from the data, not from the text of the source: active = GI50 up to about 1.1 µM and inactive = higher.

Regarding `CN1C(=O)CC2(C)c3cc(O)ccc3N(C)C12` (stereo not given), the GI50 in the experiment on SR was 18.5 µM (inactive); in the experiment on LOX IMVI, 17.1 µM (inactive); with SF-268 it was 27 µM (inactive); in the experiment on TK-10 it was > 90.4 µM (inactive); in the experiment on HL-60, 21.2 µM (inactive); with NCI-H522, 43.3 µM (inactive). Also, the GI50 with CAKI-1 was 23.8 µM (inactive); in the experiment with HOP-62, 41 µM (inactive); with MDA-MB-435, 13.6 µM (inactive); in the experiment with 786-0 it was 15 µM (inactive); in the experiment with HCT-116, 19.9 µM (inactive); with SNB-19, 46.9 µM (inactive). Moreover, the GI50 is 29.8 µM (inactive) in the experiment with SF-295; > 48.9 µM (inactive) in the experiment with Hs-578T; 50.9 µM (inactive) in the experiment on NCI-H460; 13.2 µM (inactive) in the experiment with CCRF-CEM; 19.6 µM (inactive) in the experiment with OVCAR-3; 30.5 µM (inactive) with HT-29. Moreover, the GI50 was 36.8 µM (inactive) in the experiment with COLO 205 and 31.3 µM (inactive) in the experiment with KM12.

As for `COc1ccccc1CCN1CCN(CCCc2ccccc2)CC1`, the GI50 is 32.7 µM (inactive) in the experiment on SR; 64.6 µM (inactive) in the experiment with LOX IMVI; > 100 µM (inactive) in the experiment with SF-268; 75.5 µM (inactive) in the experiment on TK-10; 65.9 µM (inactive) in the experiment with HL-60; 32.4 µM (inactive) with NCI-H522. Besides, the GI50 with CAKI-1 is 91 µM (inactive); in the experiment on HOP-62 it was > 100 µM (inactive); in the experiment on MDA-MB-435, 85.5 µM (inactive); in the experiment on 786-0 it was 45.6 µM (inactive); with HCT-116, 33 µM (inactive); in the experiment on SNB-19 it was > 100 µM (inactive). Also, the GI50 in the experiment on SF-295 was 52.5 µM (inactive); in the experiment with Hs-578T, > 100 µM (inactive); in the experiment with NCI-H460 it was 54.3 µM (inactive); in the experiment with CCRF-CEM it was > 100 µM (inactive); in the experiment on OVCAR-3, > 100 µM (inactive); in the experiment on HT-29, 28.8 µM (inactive). Also, the GI50 is 28.5 µM (inactive) in the experiment with COLO 205 and 62.7 µM (inactive) with KM12.

Regarding `NC1=NCN(C2OC(CO)C(O)C2O)C(=O)N1` (stereo not given), the GI50 was 4.49 µM (inactive) with SR; 2.23 µM (inactive) in the experiment with LOX IMVI; 15.1 µM (inactive) in the experiment with SF-268; 11.4 µM (inactive) with TK-10; 0.838 µM (active) in the experiment with HL-60; 5.26 µM (inactive) with NCI-H522. Further, the GI50 in the experiment on CAKI-1 was 69 µM (inactive); in the experiment with HOP-62 it was 152 µM (inactive); in the experiment with MDA-MB-435, 6.64 µM (inactive); in the experiment on 786-0, 4.52 µM (inactive); in the experiment with HCT-116 it was 16.6 µM (inactive); in the experiment with SNB-19 it was 159 µM (inactive). For the same molecule, the GI50 was 43.4 µM (inactive) in the experiment with SF-295; 23.4 µM (inactive) in the experiment with Hs-578T; 5.48 µM (inactive) with NCI-H460; 7.19 µM (inactive) in the experiment on CCRF-CEM; 38.6 µM (inactive) with OVCAR-3; 42.3 µM (inactive) in the experiment with HT-29. Besides, the GI50 was 131 µM (inactive) in the experiment on COLO 205 and 14.1 µM (inactive) in the experiment on KM12.

Consider `CC(=O)Nc1ccc2c3c(cc(O)c2c1)N(C(=O)CCCC(=O)Nc1ccc2c4c(cc(O)c2c1)N(C(=O)OC(C)(C)C)CC4CCl)CC3CCl` (stereo not given), for which the GI50 in the experiment with SR is 0.0221 µM (active); in the experiment with LOX IMVI it was 0.904 µM (active); in the experiment on SF-268, 0.195 µM (active); in the experiment on TK-10, 7.6 µM (inactive); in the experiment with HL-60, 0.118 µM (active); in the experiment on NCI-H522, 0.371 µM (active). Also, the GI50 in the experiment on CAKI-1 was > 50 µM (inactive); in the experiment on HOP-62, 2.01 µM (inactive); with MDA-MB-435, 0.938 µM (active); with 786-0, 1.23 µM (inactive); in the experiment on HCT-116, 0.851 µM (active); in the experiment with SNB-19, 1.24 µM (inactive). In addition, the GI50 with SF-295 was 13.4 µM (inactive); with Hs-578T, 1.55 µM (inactive); in the experiment with NCI-H460, 1.48 µM (inactive); in the experiment with CCRF-CEM it was 0.108 µM (active); in the experiment with OVCAR-3, 1.1 µM (active); with HT-29 it was 1.19 µM (inactive). Further, the GI50 was 1.22 µM (inactive) in the experiment with COLO 205 and 2.26 µM (inactive) in the experiment on KM12.

In the case of `Cc1nc2c(n1-c1ccc(Br)cc1)C(=O)c1ccccc1C2=O`, the GI50 is 1.07 µM (active) in the experiment on SR; 2.62 µM (inactive) with LOX IMVI; 5.21 µM (inactive) with SF-268; 34.4 µM (inactive) with TK-10; 0.783 µM (active) in the experiment with HL-60; 10.4 µM (inactive) with NCI-H522. Also, the GI50 with CAKI-1 is 12.5 µM (inactive); with HOP-62 it was 18.3 µM (inactive); with MDA-MB-435 it was 6.73 µM (inactive); with 786-0, 5.16 µM (inactive); in the experiment on HCT-116, 1.63 µM (inactive); in the experiment on SNB-19, 3.6 µM (inactive). Also, the GI50 is 5.45 µM (inactive) in the experiment with SF-295; 7.78 µM (inactive) in the experiment with Hs-578T; 1.44 µM (inactive) in the experiment on NCI-H460; 3.16 µM (inactive) in the experiment with CCRF-CEM; 12 µM (inactive) with OVCAR-3; 6.68 µM (inactive) with HT-29. Besides, the GI50 in the experiment with COLO 205 was 4.38 µM (inactive); with KM12, 6.5 µM (inactive).

The values above are taken from ChEMBL document CHEMBL1201862, “PubChem BioAssay data set” (2004).
